# From patent US20060154984A1, “Therapeutic use of acyl glycerols and the nitrogen- and sulphur- containing analogues thereof” (priority 2003, published 2006)
# Legend:
# [1] = Plasma lipids in Sprague Dawley rats according to the formulation used; assay type: in vivo, rat; conditions: gavage every day for 15 days, with Cremophor RH40 compared with CMC and Solutol HS15
# Experimental: A 0.5% (mN) solution of CMC was prepared in water and mixed with 0.1% (VN) Tween 80, then stirred overnight. The inventive compounds were then added and dissolved by stirring and ultrasonication for 30 minutes at 60° C.
# The emulsion comprising an inventive compound and a surfactant, Cremophor® RH40 (Polyoxyl 40 Hydrogenated Castor Oil) or Solutol® HS15 (polyethylene glycol 660 12-hydroxystearate) was prepared as follows: the inventive compound was dissolved in a solution of Cremophor® RH40 or Solutol® HS15 previously heated in a water-bath at 60° C. in a ratio for example of 6:1 (m/m). The mixture was placed in a water-bath at 60° C. until a homogeneous mixture was obtained. Said mixture was then dispersed by ultrasonication for 20 minutes at 60° C., at which time the solution became translucid. While stirring, water (MilliQ) preheated at 60° C. was added to the solution to give the desired concentration of the compound. The solution was then mixed on a Vortex® mixer, returned to the water-bath (60° C.) and optionally dispersed by ultrasonication for 30 minutes.
# To this end, the compounds were administered by gavage to Sprague Dawley rats every day for 15 days. […]
# dopaminergic neurons = assay: Rat model of Parkinson's disease (6-OHDA), immunohistochemistry with anti-TH antibody; assay type: in vivo; conditions: Wistar rats, 300 mg/kg per day in diet, 6-OHDA lesion; versus rats fed a normal diet
# Experimental: Adult male Wistar rats (280-300 g) were maintained on a 12-hour light/dark cycle at a constant temperature of 20±3° C. Animals had access to food and water ad libitum and weight gain was recorded.
# Animals were fed a normal diet or a diet supplemented with the inventive compounds (300 mg/kg per day) for 7 days before induction of the dopaminergic lesion and for 15 days after induction of same.
# Seven days after commencement of treatment with the inventive compounds, the rats were stereotactically injected with 6-OHDA (4 μg for 8 min) or buffer (sham rats) in the left part of the median tract of the telencephalon to induce striatonigral denervation.
# Tyrosine hydroxylase (TH) is an enzyme which catalyzes the transformation of tyrosine to […]. It is used to label dopaminergic neurons. After the apomorphine sensitization test, the animals were sacrificed and the brains were removed. Brain slices were incubated with anti-TH antibody (SCBT, Santa Cruz, Calif.) and then with a second biotinylated antibody. Visualization was with the ABC staining system kit (Tebu) according to the supplier's instructions.
# Viable cells labelled with anti-TH antibody (TH+ cells) were counted. […]
# PPARα = target: T1, PPARα (Homo sapiens, UniProt Q07869); assay: Gal4/PPARα transactivation system in HepG2 cells (luciferase reporter); assay type: cell-based; conditions: HepG2 cells transfected with Gal4/PPARα plasmids, 24 h
# T1 construct: expressed in transfected cells; host or cells: HepG2
# T1 sequence (Q07869 239-466 limits assumed): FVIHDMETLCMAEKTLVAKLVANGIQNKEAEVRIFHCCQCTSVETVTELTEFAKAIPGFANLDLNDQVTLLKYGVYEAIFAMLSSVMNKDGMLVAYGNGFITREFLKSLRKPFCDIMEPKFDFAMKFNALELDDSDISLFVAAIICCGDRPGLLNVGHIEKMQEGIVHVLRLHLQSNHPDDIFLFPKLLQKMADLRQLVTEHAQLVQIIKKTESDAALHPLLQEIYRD
# Experimental: PPAR activation was tested in vitro in RK13 fibroblast cell lines or in a hepatocyte line HepG2 by measuring the transcriptional activity of chimeras composed of the DNA binding domain of the yeast gal4 transcription factor and the ligand binding domain of the different PPARs. The example below is given for HepG2 cells.
# HepG2 cells were from ECACC (Porton Down, UK) and were grown in DMEM medium supplemented with 10% (VN) fetal calf serum, 100 U/ml penicillin (Gibco, Paisley, UK) and 2 mM L-glutamine (Gibco, Paisley, UK). The culture medium was changed every two days. Cells were kept at 37° C. in a humidified 95% air/5% CO2 atmosphere.
# The plasmids pG5TkpGL3, PRL-CMV, pGal4-hPPARα, pGal4-hPPARγ and pGal4-f have been described by Raspe et al. (Raspe, Madsen et al. 1999). The pGal4-mPPARα and pGal4-hPPARβ constructs were obtained by cloning PCR-amplified DNA fragments corresponding to the DEF domains of the mouse PPARα and […] nuclear receptors, respectively, into the pGal4-f vector.
# HepG2 cells were seeded in 24-well culture dishes at 5×10^4 cells/well and transfected for 2 hours with the reporter plasmid pG5TkpGL3 (50 ng/well), the expression vectors pGal4-f, pGal4-mPPARα, pGal4-hPPARα, pGal4-hPPARγ, or pGal4-hPPARβ (100 ng/well) and the transfection efficiency control vector pRL-CMV (1 ng/well) according to the previously described protocol (Raspe, Madsen et al. 1999), then incubated for 36 hours with the test compounds. At the end of the experiment, the cells were lysed (Gibco, Paisley, UK) and luciferase activity was determined with a Dual-Luciferase™ Reporter Assay System kit (Promega, Madison, Wis., USA) according to the supplier's instructions. The protein content of the cell extracts was then measured with the Bio-Rad Protein Assay kit (Bio-Rad, Munich, Germany) as directed by the supplier. […] FIG. 3 gives an example of the results obtained with the inventive compounds.
# FIG. 3: HepG2 cells transfected with Gal4/PPARα plasmids were incubated with different concentrations (5, 15, 50 and 100 μM) of the inventive comopunds (Ex 2a, Ex 4a, Ex 4p, Ex 5a, Ex 7 and Ex 11) for 24 h and with different concentrations of the vehicle (PC) noted 1, 2, 3, 4 as controls for the 5, 15, 50 and 100 μM concentrations of the inventive compounds (according to the 4:1 (m/m) ratio described in example 2 (Method of preparation of the inventive compounds for in vitro studies)). The results are expressed as the induction factor (luminescent signal of treated cells divided by luminescent signal of untreated cells) after the different treatments. […] The induction factors for inventive compound Ex 4p were 35 at 100 μM, 44 at 50 μM, 36 at 15 μM and 24 at 5 μM. The induction factors for compound Ex 5a were 32 at 100 μM, 34 at 50 μM, 15 at 15 μM and 4 at 5 μM. Finally, inventive compound Ex 7 induced a 19-fold induction at 100 μM, 19 at 50 μM, 7 at 15 μM and 1.5 at 5 μM. In contrast, when the cells were incubated with the vehicle (PC liposome), no significant induction was observed.
smiles,measurement,setting,value
"CCCCCCCCCCCCCCSCC(=O)OCC(COC(=O)CSCCCCCCCCCCCCCC)OC(=O)CSCCCCCCCCCCCCCC [Ex 4a, 1,2,3-tritetradecylthioacetylglycerol]",plasma triglycerides,[1],larger decrease
same,total plasma cholesterol,[1],larger decrease
same,number of neurons labelled with anti-tyrosine hydroxylase (TH+ neurons),dopaminergic neurons,greater number of neurons
same,induction factor (luminescent signal of treated cells divided by luminescent signal of untreated cells),PPARα; 5 μM,6 fold
same,induction factor (luminescent signal of treated cells divided by luminescent signal of untreated cells),PPARα; 15 μM,15 fold
same,induction factor (luminescent signal of treated cells divided by luminescent signal of untreated cells),PPARα; 50 μM,23 fold
same,induction factor (luminescent signal of treated cells divided by luminescent signal of untreated cells),PPARα; 100 μM,33 fold
